Laboratory results taken from PMC9539280 (Advanced Science, 2022).

Experiments:
hCMs [1] = assay: Spontaneous calcium transient measurement (Fluo-4) in hCMs; details: spontaneous, 6 days
hCMs [2] = test system: hCMs
[3] = escalating concentrations (lopinavir: high dosage only)

Row | SMILES | calcium transient amplitude (hCMs [1]; escalating concentrations (1-20 μM)) | time to 50% decay of the calcium transients (hCMs [1]; [3]) | time to peak of the calcium transients (hCMs [1]; [3]) | spontaneous calcium transients (hCMs [2])
1 | CCC(CC)COC(=O)[C@H](C)N[P@](=O)(OC[C@H]1O[C@@](C#N)(c2ccc3c(N)ncnn23)[C@H](O)[C@@H]1O)Oc1ccccc1 [Remdesivir, remdesivir] | tended to decrease | significantly increased | significantly increased | 
2 | Cc1cccc(/C=N/Nc2cc(N3CCOCC3)nc(OCCc3ccccn3)n2)c1 [Apilimod, apilimod] |  |  |  | no calcium transients were observed
